Biological target: Leukotriene B4 receptor 1 (Homo sapiens, UniProt Q15722)
Test: BLT-1 cAMP Assay: The ability of compounds to antagonize the human BLT1 receptor was determined using a kit to measure changes in intracellular cyclic AMP levels (cAMP dynamic assay kit, Cisbio Cat. No. 62AM4PEC). HEK293 cells recombinantly expressing human BLT1 receptor, previously frozen in Recovery Medium (Life Technologies, Cat. No. 12648-010) were thawed and diluted into assay medium (HBSS (Hyclone SH 30268.01), 20 mM HEPES (Gibco 15630-106), 800 μM IBMX (Sigma I5879), 0.1% DTPA BSA (Perkin Elmer CR84-100)). The cell suspension was centrifuged at 200×g for 10 min and then resuspended in fresh assay medium to a density of 2.5×10^5 cells/mL. A Labcyte Echo 550 acoustic dispenser was used to transfer 25 nL of test compound dissolved in DMSO into the wells of a dry 384-well plate (Greiner 784075). All subsequent liquid additions were performed using a BIORAPTR (FRD; Beckman Coulter). Next, 5 μL of cell suspension was added and incubated for 20 min. at 37° C. and 5% CO2 in a humidified plastic tray. To test for agonist activity […] of assay buffer containing forskolin (Sigma F-6886. 4 μM for BLT1) was added and incubated for 30 minutes at 37° C. and 5% CO2 in a humidified plastic tray. To test for antagonist activity 5 μL of assay buffer containing forskolin (Sigma F-6886. 4 μM for BLT1) and either LTB4 (Sigma Aldrich L0517; 2 nM BLT1) was added and incubated for 30 minutes at 37° C. and 5% CO2 in a humidified plastic tray.The levels of cAMP were detected using the CisBio kit following the manufacturer's instructions: cAMP-d2 vial was reconstituted with distilled water and then diluted accordingly with conjugate & lysis buffer. 5 μL of cAMP-d2 working solution was added to all of the wells of the assay plate. cAMP-Cryptate vial was reconstituted with distilled water and then diluted accordingly with conjugate & lysis buffer. 5 μL of cAMP-Cryptate working solution were added to the assay plate. […]
Assay type: cell-based

Leukotriene B4 receptor 1, sequence (Q15722 whole entry): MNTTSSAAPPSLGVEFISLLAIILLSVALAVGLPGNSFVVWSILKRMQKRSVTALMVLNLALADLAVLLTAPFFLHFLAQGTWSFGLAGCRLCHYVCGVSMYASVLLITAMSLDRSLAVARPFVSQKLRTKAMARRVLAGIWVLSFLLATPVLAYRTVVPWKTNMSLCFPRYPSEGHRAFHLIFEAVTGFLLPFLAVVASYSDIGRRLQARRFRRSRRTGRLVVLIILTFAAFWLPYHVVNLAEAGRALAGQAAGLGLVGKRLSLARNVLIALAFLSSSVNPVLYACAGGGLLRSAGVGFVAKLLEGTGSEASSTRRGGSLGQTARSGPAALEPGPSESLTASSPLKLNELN

EC50 [nM]	Compound
538	CCn1nccc1C[C@@H]1COc2cc(-c3ccccc3C(=O)NS(=O)(=O)C3(C)CC3)ccc2[C@H]1O (racemic)
35	O=C(NS(=O)(=O)C(F)(F)F)c1ccc(F)cc1-c1ccc2c(c1)OC[C@H](Cc1ccc(-c3ccccc3)cc1)[C@H]2O (single isomer, unassigned)
60	CC1(S(=O)(=O)NC(=O)c2ccccc2-c2ccc3c(c2)OC[C@@H](Cc2coc(-c4ccccc4)n2)[C@@H]3O)CC1 (single isomer, unassigned)
